Test results from patent US11458149B1, “TEAD inhibitors and uses thereof” (Ikena Oncology, Inc., priority 2019, dated 2022).
Where two headings read alike, the source gives them in different places.

Experiments:
TEAD = TEAD reporter assay (Hippo Pathway TEAD Reporter - MCF7 cell line, luciferase); type: cell-based, human
Excerpt: TEAD inhibition can be assayed using Hippo Pathway TEAD Reporter—MCF7 Cell Line (BPS Bioscience, Catalog #: 60618).
The TEAD Reporter—MCF7 cell line contains the firefly luciferase gene under the control of TEAD responsive elements stably integrated into the human breast cancer cell line, MCF7. Inside the cells, basal unphosphorylated YAP/TAZ remains in the nucleus and induces the constitutive expression of luciferase reporter. The cell line is validated for the inhibition of the expression of luciferase reporter by the activators of the Hippo pathway.
• 1) Harvest TEAD Reporter—MCF7 cells from culture in growth medium and seed cells at a density of 35,000 cells per well into white clear-bottom 96-well microplate in 45 μl of assay medium. • 2) Incubate cells at 37° C. in a CO2 incubator for overnight. • 3) Dilute the activators (H2O2 or okadaic acid) stock in assay medium. Add 5 μl of diluted activators to the wells. The final concentration of DMSO in assay medium is 0.1%. • 4) Add 5 μl of assay medium with same concentration of DMSO without activator to control wells. • 5) Add 50 μl of assay medium with DMSO to cell-free control wells (for determining background luminescence). • 6) Set up each treatment in at least triplicate. • 7) Incubate cells at 37° C. in a CO2 incubator for 5-6 hours. • 8) Perform luciferase assay using the ONE-Step™ Luciferase Assay System following the protocol provided: Add 100 μl of ONE-Step™ Luciferase reagent per well and rock at room temperature for ˜15 minutes. Measure luminescence using a luminometer. • 9) Data Analysis: Obtain the background-subtracted luminescence by subtracting the average background luminescence (cell-free control wells) from the luminescence reading of all wells.
(§1) Certain compounds were tested in TEAD reporter assay, and in H226 and H28. A: EC50<0.1 uM; B: 0.1 uM≤EC50≤0.5 uM; C: EC50>0.5 uM.

H226 = test: Anti-proliferation assay in H226 cells; type: cell-based, human
Experimental: as §1
Individual cell lines were grown in medium according to supplier instructions and seeded into 96-well plates at a density that ensured logarithmic growth over 72 hours. TEAD inhibitor compounds were administered to cells at a top concentration of 10 μm and subsequently a 10 point 3-fold serial dilution was conducted. After 72 hours, proliferation was quantified using Cell TITERGLO™ (Promega, Inc.) and compared to vehicle control. IC50 and EC50 values were generated using XLFit curve fitting software.

[1] = Homo sapiens, MCF7, TEAD Reporter - MCF7 cells, read-out: TEAD Reporter Assay EC50
[2] = Homo sapiens, NCI-H226, H226 cells, read-out: H226 EC50
[3] = TEAD Reporter - MCF7 cells, read-out: TEAD Reporter Assay EC50
[4] = H226 cells, read-out: H226 EC50

Row | Compound | EC50 (TEAD; [1]) [µM] | EC50 (H226; [2]) [µM] | further results
1 | C=CC(=O)N1CCC(NCc2ccc(C(F)(F)F)cc2)CC1 [Compound I-53, 1-[4-[[4-(trifluoromethyl)phenyl]methylamino]-1-piperidyl]prop-2-en-1-one] | 0.1 to 0.5 | 0.1 to 0.5 | –
2 | C=CC(=O)Nc1ccc2c(c1)N(c1cccc(C(F)(F)F)c1)CCC2 [Compound I-37, N-[1-[3-(trifluoromethyl)phenyl]-3,4-dihydro-2H-quinolin-7-yl]prop-2-enamide] | > 0.5 | 0.1 to 0.5 | –
3 | C=CC(=O)Nc1cccc(N2CCCc3cc(C(F)(F)F)ccc32)c1 [Compound I-43] | – | – | EC50 (TEAD; Homo sapiens, MCF7, read-out: TEAD Reporter Assay EC50 (uM)): > 0.5 µM; EC50 (H226; Homo sapiens, NCI-H226, read-out: H226 EC50 (uM)): > 0.5 µM
4 | C=CC(=O)N1C[C@@H]2[C@H](C1)[C@H]2NCc1cccc(C(F)(F)F)c1 [Compound I-72, 1-[(1S,5R)-6-[[3-(trifluoromethyl)phenyl]methylamino]-3-azabicyclo[3.1.0]hexan-3-yl]prop-2-en-1-one] | 0.1 to 0.5 | < 0.1 | –
5 | C=CC(=O)N[C@@H]1Cc2ccccc2N(Cc2cccc(C(F)(F)F)c2)C1 [Compound I-71, N-[(3R)-1-[[3-(Trifluoromethyl)phenyl]methyl]-3,4-dihydro-2H-quinolin-3-yl]prop-2-enamide] | < 0.1 | < 0.1 | –
6 | C=CC(=O)NC1CCC(Nc2ccc(C(F)(F)F)cc2)CC1 (stereo not shown) [Compound I-58, N-[4-[4-(trifluoromethyl)anilino]cyclohexyl]prop-2-enamide] | – | – | EC50 (TEAD; [3]): > 0.5 µM; EC50 (H226; [4]): > 0.5 µM
7 | C=CC(=O)N[C@@H]1CCCN(Cc2cccc(C(F)(F)F)c2)C1 [Compound I-47, N-[(3R)-1-[[3-(trifluoromethyl)phenyl]methyl]-3-piperidyl]prop-2-enamide] | > 0.5 | > 0.5 | –
8 | C=CC(=O)Nc1ccc2c(c1)N(c1ccc(C(F)(F)F)cc1)CCC2 [Compound I-34, N-[1-[4-(Trifluoromethyl)phenyl]-3,4-dihydro-2H-quinolin-7-yl]prop-2-enamide] | > 0.5 | – | –
9 | C=CC(=O)N[C@H]1CCCN(Cc2cccc(C(F)(F)F)c2)C1 [Compound I-48, N-[(3S)-1-[[3-(trifluoromethyl)phenyl]methyl]-3-piperidyl]prop-2-enamide] | > 0.5 | – | –
10 | C=CC(=O)N1CC[C@H](NCc2cccc(C(F)(F)F)c2)C1 [Compound I-65, 1-[(3S)-3-[[3-(trifluoromethyl)phenyl]methylamino]pyrrolidin-1-yl]prop-2-en-1-one] | 0.1 to 0.5 | > 0.5 | –
11 | C=CC(=O)N[C@@H]1CCN(Cc2ccc(C(F)(F)F)cc2)C1 [Compound I-55, N-[(3R)-1-[[4-(trifluoromethyl)phenyl]methyl]pyrrolidin-3-yl]prop-2-enamide] | 0.1 to 0.5 | 0.1 to 0.5 | –
12 | C=CC(=O)Nc1cc(Oc2cccc(C(F)(F)F)c2)cc2ncccc12 [Compound I-42] | < 0.1 | 0.1 to 0.5 | –
13 | C=CC(=O)N[C@H]1CCN(Cc2ccc(C(F)(F)F)cc2)C1 [Compound I-57, N-[(3S)-1-[[4-(trifluoromethyl)phenyl]methyl]pyrrolidin-3-yl]prop-2-enamide] | > 0.5 | > 0.5 | –
14 | C=CC(=O)NC1CCN(Cc2ccc(Cl)cc2)CC1 [Compound I-394] | 0.1 to 0.5 | 0.1 to 0.5 | –
15 | C=CC(=O)N1CCC(Nc2ccc(C(F)(F)F)cc2)CC1 [Compound I-59, 1-[4-[4-(trifluoromethyl)anilino]-1-piperidyl]prop-2-en-1-one] | > 0.5 | > 0.5 | –
16 | C=CC(=O)NC1CCN(c2cccc3ccccc23)CC1 [Compound I-66, N-[1-(1-Naphthyl)-4-piperidyl]prop-2-enamide] | > 0.5 | > 0.5 | –
17 | C=CC(=O)Nc1cccc(N2CCCc3ccc(C(F)(F)F)cc32)c1 [Compound I-38, N-[3-[7-(trifluoromethyl)-3,4-dihydro-2H-quinolin-1-yl]phenyl]prop-2-enamide] | > 0.5 | > 0.5 | –
18 | FC(F)(F)c1ccc(CN2CCC3(CC2)CC(Br)=NO3)cc1 [Compound I-149, 3-bromo-8-[[4-(trifluoromethyl)phenyl]methyl]-1-oxa-2,8-diazaspiro[4.5]dec-2-ene] | > 0.5 | 0.1 to 0.5 | –
19 | C=CC(=O)Nc1ccc(C)c(Oc2cc(C(F)(F)F)ccc2OC)c1 [Compound I-32, N-[3-[2-Methoxy-5-(trifluoromethyl)phenoxy]-4-methyl-phenyl]prop-2-enamide] | > 0.5 | > 0.5 | –
20 | C=CC(=O)NC1CCN(Cc2ccc(C#N)cc2)CC1 [Compound I-393] | > 0.5 | > 0.5 | –

Row | Compound | EC50 (TEAD; [1]) [µM] | EC50 (H226; [2]) [µM] | further results
21 | C=CC(=O)NC1(C)CCN(Cc2ccc(C(F)(F)F)cc2)CC1 [Compound I-73, N-[4-methyl-1-[[4-(trifluoromethyl)phenyl]methyl]-4-piperidyl]prop-2-enamide] | – | – | EC50 (TEAD; [3]): > 0.5 µM; EC50 (H226; [4]): > 0.5 µM
22 | C=CC(=O)NC1CCN(Cc2ccc(SC(F)(F)F)cc2)CC1 [Compound I-387] | > 0.5 | > 0.5 | –
23 | C=CC(=O)NC1CCN(Cc2ccc(OC(F)(F)F)cc2)CC1 [Compound I-388] | > 0.5 | > 0.5 | –
24 | C=CC(=O)NC1CCC(Oc2ccc(C(F)(F)F)cc2)CC1 (stereo not shown) [Compound I-67, N-[4-[4-(Trifluoromethyl)phenoxy]cyclohexyl]prop-2-enamide] | 0.1 to 0.5 | 0.1 to 0.5 | –
25 | C=CC(=O)Nc1cc(Oc2cccc(C(F)(F)F)c2)c(C)cn1 [Compound I-45] | < 0.1 | < 0.1 | –
26 | C=CC(=O)NC1CCN([C@@H](C)c2ccc(C(F)(F)F)cc2)CC1 [Compound I-63, N-[1-[(1S)-1-[4-(Trifluoromethyl)phenyl]ethyl]-4-piperidyl]prop-2-enamide] | 0.1 to 0.5 | > 0.5 | –
27 | C=CC(=O)NC1CCN(Cc2ccc(-c3ccccc3)cc2)CC1 [Compound I-389] | > 0.5 | > 0.5 | –
28 | C=CC(=O)N[C@H]1CCN(Cc2ccc(C(F)(F)F)cc2)c2ccccc21 [Compound I-68, N-[(4S)-1-[[4-(Trifluoromethyl)phenyl]methyl]-3,4-dihydro-2H-quinolin-4-yl]prop-2-enamide] | 0.1 to 0.5 | > 0.5 | –
29 | C=CC(=O)N1CCC(NCc2cccc(C(F)(F)F)c2)CC1 [Compound I-61] | > 0.5 | > 0.5 | –
30 | C=CC(=O)Nc1cc(Oc2cccc(C(F)(F)F)c2)c2cccnc2c1 [Compound I-44, N-[5-[3-(Trifluoromethyl)phenoxy]-7-quinolyl]prop-2-enamide] | < 0.1 | < 0.1 | –
31 | C=CC(=O)NC1CCN(C(=O)c2ccc(C(F)(F)F)cc2)CC1 [Compound I-52, N-[1-[4-(trifluoromethyl)benzoyl]-4-piperidyl]prop-2-enamide] | 0.1 to 0.5 | 0.1 to 0.5 | –
32 | C=CC(=O)N1CC[C@@H](NCc2cccc(C(F)(F)F)c2)C1 [Compound I-386, 1-[(3R)-3-[[3-(Trifluoromethyl)phenyl]methylamino]pyrrolidin-1-yl]prop-2-en-1-one] | 0.1 to 0.5 | 0.1 to 0.5 | –
33 | C=CC(=O)NC1CCN(Cc2ccc(C(C)(C)C)cc2)CC1 [Compound I-395] | > 0.5 | > 0.5 | –
34 | C=CC(=O)NC1CCN(Cc2cccc(C(F)(F)F)c2)CC1 [Compound I-51, N-[1-[[3-(trifluoromethyl)phenyl]methyl]-4-piperidyl]prop-2-enamide] | > 0.5 | > 0.5 | –
35 | C=CC(=O)NC1CCN(Cc2ccc(C3CC3)cc2)CC1 [Compound I-397] | > 0.5 | 0.1 to 0.5 | –
36 | NC(=O)/C=C/c1cc(Oc2cccc(C(F)(F)F)c2)cc2ncccc12 [Compound I-39, (E)-3-[7-[3-(trifluoromethyl)phenoxy]-5-quinolyl]prop-2-enamide] | > 0.5 | > 0.5 | –
37 | C=CC(=O)NC1CCC(Oc2ccc(C(F)(F)F)cc2)CC1 (stereo not shown) [Compound I-70, N-[4-[4-(Trifluoromethyl)phenoxy]cyclohexyl]prop-2-enamide] | – | – | EC50 (TEAD; [3]): < 0.1 µM; EC50 (H226; [4]): < 0.1 µM
38 | C=CC(=O)NC1CCN(Cc2ccccc2)CC1 [Compound I-54, N-(1-benzyl-4-piperidyl)prop-2-enamide] | > 0.5 | > 0.5 | –
39 | C=CC(=O)Nc1ccc(C)c(Oc2cc(C(F)(F)F)ccc2Br)c1 [Compound I-41, N-[3-[2-bromo-5-(trifluoromethyl)phenoxy]-4-methyl-phenyl]prop-2-enamide] | > 0.5 | > 0.5 | –
